The record followed here is patent US7550463B2, “Carbamoylpyridone derivatives having inhibitory activity against HIV integrase” (Shionogi & Co., Ltd., priority 2004, dated 2009).

One may read the melting point as the temperature, or range, at which the solid turns liquid.

Data set [1] deals with HIV integrase (Human immunodeficiency virus type 1 group M subtype B, UniProt P04585). The experiment in a line: HIV integrase inhibitory activity assay (immunoplate, substrate DNA / target DNA, OD 405 nm). The data set is classed as biochemical. To be noted: read-out: Integrase inhibitory activity (IC50, ng/ml) (converted). As to the method: The HIV integrase inhibitory activity was examined based on an assay method shown below.
(1) Preparation of DNA Solution
According to the same method as the method described in Test Example 1 of WO 2004/024693, a substrate DNA solution (2 pmol/μl) and a target DNA solution (5 pmol/μl) were prepared. […] Each sequence of a substrate DNA and a target DNA is as described in the same Test Example.
(2) Measurement of Inhibition Rate (IC50 Value)
Streptavidin (manufactured by Vector Laboratories) was dissolved in a 0. 1M carbonate buffer (composition: 90 mM Na2CO3, 10 mM NaHCO3 )to a concentration of 40 μg/ml. Each 50 μl of this solution was added to a well of an immunoplate (manufactured by NUNC), and this was allowed to stand at 4° C. overnight to perform adsorption. Then, each well was washed with, a phosphate buffer (composition: 13.7 mM NaCl, 0.27 mM KCl, 0.43 mM. Na2HPO4, 0.14 mM KH2PO4) two times, 300 μl of a phosphate buffer containing 1% skim milk was added, and blocking was performed for 30 minutes. […]
Each plate was incubated at 30° C. for 10 minutes, and the reaction solution was discarded, followed by washing with a phosphate buffer two times. […] Inhibition rate (%)=100[1−{(C abs.−NC abs.)/(PC abs.−NC abs.)}] • C abs.; absorbance of well of compound • NC abs.: absorbance of NC • PC abs.: absorbance of PC

Structures are written as SMILES.

For the compound `O=C(NCc1ccc(F)cc1)c1[nH]cc(C(=O)NCc2ccc(F)cc2)c(=O)c1O`, the melting point was 279 to 280 °C. In the case of `O=C(O)c1[nH]cc(C(=O)NCc2ccc(F)cc2)c(=O)c1O` [Compound A-3], the IC50 in data set [1] is 10.1 nM. The same measure, in the same setting: the value for `COC(=O)c1[nH]cc(C(=O)NCc2ccc(F)cc2)c(=O)c1O` [Compound A-1a, Methyl 5-(4-fluorobenzylcarbamoyl)-3-hydroxy-4-oxo-1,4-dihydropyridine-2-carboxylate] was 20 nM.
